The target in this experiment is NLRP3 (Homo sapiens, UniProt Q96P20). Nature of the experiment: THP-1 cells pyroptosis assay. Type of experiment: cell-based. The note with it: LPS 1.0 μg/ml, nigericin 5 μM, resazurin readout, 10 μM top dose (Example 2: top dose of 30 μM). Details: Seed THP-1 cells (25,000 cells/well) containing 1.0 μg/ml LPS; host or cells: THP-1. Put shortly: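 THP-1 cells (25,000/well) primed with 1 μg/ml LPS in serum-free RPMI, treated with compound (8-point dilution, 10 μM top unless stated; 0.1% DMSO) 3 h at 37°C, then nigericin 5 μM 1 h. Viability read by resazurin (100 μM, 1-2 h) fluorescence; IC50 from 4-parameter fit.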
On the technique in general: Alamar Blue is a resazurin reagent that responds to reducing activity.

The structures appear in SMILES notation. Bounds are passed on as bounds.

In general, IC50 refers to the concentration needed to halve the response being measured.

Chain of NLRP3 (Q96P20 whole entry): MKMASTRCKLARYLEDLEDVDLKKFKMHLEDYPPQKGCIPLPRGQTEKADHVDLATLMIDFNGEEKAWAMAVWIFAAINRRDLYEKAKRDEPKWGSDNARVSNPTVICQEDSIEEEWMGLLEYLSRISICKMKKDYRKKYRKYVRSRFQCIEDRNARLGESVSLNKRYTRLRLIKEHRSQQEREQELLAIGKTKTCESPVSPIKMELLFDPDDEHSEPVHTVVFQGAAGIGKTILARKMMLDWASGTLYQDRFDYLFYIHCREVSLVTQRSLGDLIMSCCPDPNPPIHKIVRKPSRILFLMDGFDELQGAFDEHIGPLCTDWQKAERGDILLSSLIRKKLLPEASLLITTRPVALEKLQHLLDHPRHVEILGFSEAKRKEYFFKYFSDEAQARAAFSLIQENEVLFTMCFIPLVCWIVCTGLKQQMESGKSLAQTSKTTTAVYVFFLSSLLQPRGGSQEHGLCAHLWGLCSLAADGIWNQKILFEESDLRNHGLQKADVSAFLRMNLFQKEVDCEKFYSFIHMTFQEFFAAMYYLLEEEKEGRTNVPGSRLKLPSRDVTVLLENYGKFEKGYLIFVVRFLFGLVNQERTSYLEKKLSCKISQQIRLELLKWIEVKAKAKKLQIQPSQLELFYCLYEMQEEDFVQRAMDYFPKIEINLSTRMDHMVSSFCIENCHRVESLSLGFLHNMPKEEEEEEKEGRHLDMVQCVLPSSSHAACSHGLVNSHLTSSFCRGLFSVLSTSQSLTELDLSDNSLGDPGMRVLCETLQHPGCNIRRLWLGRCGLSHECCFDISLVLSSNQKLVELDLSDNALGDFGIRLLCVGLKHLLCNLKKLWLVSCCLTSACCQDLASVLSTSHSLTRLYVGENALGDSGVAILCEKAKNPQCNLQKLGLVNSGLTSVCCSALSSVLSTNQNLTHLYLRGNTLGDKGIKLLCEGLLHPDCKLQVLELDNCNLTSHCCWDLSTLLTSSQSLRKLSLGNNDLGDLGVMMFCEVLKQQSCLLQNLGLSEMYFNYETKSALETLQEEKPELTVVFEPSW

As for `N#Cc1cccc(S(=O)(=O)c2nnc(Nc3c4c(cc5c3CCC5)CCC4)[nH]2)c1` [Example 188, 3-((5-((1,2,3,5,6,7-hexahydro-s-indacen-4-yl)amino)-4H-1,2,4-triazol-3-yl)sulfonyl)benzonitrile], the IC50 is ≤ 5 µM. To `O=S(=O)(c1ccccc1)c1nnc(Nc2c(-c3ccncc3)ccc3c2CCC3)[nH]1` [Example 189, 5-(phenylsulfonyl)-N-(5-(pyridin-4-yl)-2,3-dihydro-1H-inden-4-yl)-4H-1,2,4-triazol-3-amine] belongs ≤ 10 µM; to `COc1cc(-c2ccc3c(c2Nc2nnc(S(=O)(=O)c4ccccc4)[nH]2)CCO3)ccn1` [Example 190, N-(5-(2-methoxypyridin-4-yl)-2,3-dihydrobenzofuran-4-yl)-5-(phenylsulfonyl)-4H-1,2,4-triazol-3-amine], ≤ 5 µM; to `CC(C)c1cc(F)cc(-c2ccncc2)c1Nc1nnc(S(=O)(=O)c2ccccc2)[nH]1` [Example 191, N-(4-fluoro-2-isopropyl-6-(pyridin-4-yl)phenyl)-5-(phenylsulfonyl)-4H-1,2,4-triazol-3-amine], ≤ 10 µM. Turning to `O=S(=O)(c1cnn(C2CC2)c1)c1nnc(Nc2c3c(cc4c2CCC4)CCC3)[nH]1` [Example 193, 3-((1-cyclopropyl-H-pyrazol-4-yl)sulfonyl)-N-(1,2,3,5,6,7-hexahydro-s-indacen-4-yl)-1H-1,2,4-triazol-5-amine], the IC50 was ≤ 5 µM. To `O=S(=O)(c1nnc(Nc2c3c(cc4c2CCC4)CCC3)[nH]1)C1CCCC(N2CCCC2)C1` (centres unmarked) [Example 194, N-(1,2,3,5,6,7-hexahydro-s-indacen-4-yl)-3-((3-(pyrrolidin-1-yl)cyclohexyl)sulfonyl)-1H-1,2,4-triazol-5-amine] belongs ≤ 10 µM; to `CC(C)n1ncc(-c2ccncc2)c1Nc1nnc(S(=O)(=O)N2CCC(N(C)C)CC2)[nH]1` [Example 198, 1-((5-((1-isopropyl-4-(pyridin-4-yl)-1H-pyrazol-5-yl)amino)-4H-1,2,4-triazol-3-yl)sulfonyl)-N,N-dimethylpiperidin-4-amine], ≤ 10 µM. For `CN(C)C1CCN(S(=O)(=O)c2nnc(Nc3c(-c4ccnn4C)ccc4c3CCC4)[nH]2)CC1` [Example 205, N,N-dimethyl-1-((5-((5-(1-methyl-1H-pyrazol-5-yl)-2,3-dihydro-1H-inden-4-yl)amino)-4H-1,2,4-triazol-3-yl)sulfonyl)piperidin-4-amine] the value was ≤ 10 µM; for `Cc1ccc(C(C)C)c(Nc2nnc(S(=O)(=O)N3CCC(N(C)C)CC3)[nH]2)c1` [Example 206, 1-((5-((2-isopropyl-5-methylphenyl)amino)-4H-1,2,4-triazol-3-yl)sulfonyl)-N,N-dimethylpiperidin-4-amine], ≤ 10 µM.

Consider `CN(C)C1CCN(S(=O)(=O)c2nnc(Nc3c(-c4cnn(C)c4)ccc4c3CCC4)[nH]2)CC1` [Example 207, N,N-dimethyl-1-((5-((5-(1-methyl-1H-pyrazol-4-yl)-2,3-dihydro-1H-inden-4-yl)amino)-4H-1,2,4-triazol-3-yl)sulfonyl)piperidin-4-amine], for which the IC50 is ≤ 5 µM. On to `COc1cc(-c2c(C)cccc2Nc2nnc(S(=O)(=O)N3CCC(N(C)C)CC3)[nH]2)ccn1` [Example 208, 1-((5-((2-(2-methoxypyridin-4-yl)-3-methylphenyl)amino)-4H-1,2,4-triazol-3-yl)sulfonyl)-N,N-dimethylpiperidin-4-amine], for which the IC50 is ≤ 10 µM.

Regarding `CN(C)C1CCN(S(=O)(=O)c2nnc(Nc3c(C4CCOCC4)ccc4c3CCC4)[nH]2)CC1` [Example 209, N,N-dimethyl-1-((5-((5-(tetrahydro-2H-pyran-4-yl)-2,3-dihydro-1H-inden-4-yl)amino)-4H-1,2,4-triazol-3-yl)sulfonyl)piperidin-4-amine], the half-maximal inhibitory concentration (IC50) was ≤ 10 µM. Regarding `CN(C)C1CCN(S(=O)(=O)c2nnc(Nc3c4c(c(C#N)c5c3CCC5)CCC4)[nH]2)CC1` [Example 223, 8-((5-((4-(dimethylamino)piperidin-1-yl)sulfonyl)-4H-1,2,4-triazol-3-yl)amino)-1,2,3,5,6,7-hexahydro-s-indacene-4-carbonitrile], the IC50 was ≤ 5 µM. To `COc1cc(-c2cc(-c3ncco3)c3c(c2Nc2nnc(S(=O)(=O)N4CCC(N(C)C)CC4)[nH]2)CCC3)ccn1` [Example 229, 1-((5-((5-(2-methoxypyridin-4-yl)-7-(oxazol-2-yl)-2,3-dihydro-1H-inden-4-yl)amino)-4H-1,2,4-triazol-3-yl)sulfonyl)-N,N-dimethylpiperidin-4-amine] belongs ≤ 10 µM; to `COc1cc(-c2cc(C#N)c3c(c2Nc2nnc(S(=O)(=O)N4CCC(N(C)C)CC4)[nH]2)CCC3)ccn1` [Example 230, 7-((5-((4-(dimethylamino)piperidin-1-yl)sulfonyl)-4H-1,2,4-triazol-3-yl)amino)-6-(2-methoxypyridin-4-yl)-2,3-dihydro-1H-indene-4-carbonitrile], ≤ 5 µM; to `CC(=O)c1c2c(c(Nc3nnc(S(=O)(=O)N4CCC(N(C)C)CC4)[nH]3)c3c1CCC3)CCC2` [Example 232, 1-(8-((5-((4-(dimethylamino)piperidin-1-yl)sulfonyl)-4H-1,2,4-triazol-3-yl)amino)-1,2,3,5,6,7-hexahydro-s-indacen-4-yl)ethan-1-one], ≤ 1 µM. To `CS(=O)(=O)c1nnc(Nc2c(-c3ccnc(OCc4ccccc4)c3)ccc3c2CCC3)[nH]1` [Example 234, N-(5-(2-(benzyloxy)pyridin-4-yl)-2,3-dihydro-1H-inden-4-yl)-5-(methylsulfonyl)-4H-1,2,4-triazol-3-amine] belongs ≤ 5 µM. For `COCC(C)Oc1cc(-c2ccc3c(c2Nc2nnc(S(C)(=O)=O)[nH]2)CCC3)ccn1` (centres unmarked) [Example 237, N-(5-(2-((1-methoxypropan-2-yl)oxy)pyridin-4-yl)-2,3-dihydro-1H-inden-4-yl)-5-(methylsulfonyl)-4H-1,2,4-triazol-3-amine] the value was ≤ 5 µM; for `CS(=O)(=O)c1nnc(Nc2c(-c3ccnc(OCCO)c3)ccc3c2CCC3)[nH]1` [Example 238, 2-((4-(4-((5-(methylsulfonyl)-4H-1,2,4-triazol-3-yl)amino)-2,3-dihydro-1H-inden-5-yl)pyridin-2-yl)oxy)ethan-1-ol], ≤ 10 µM. `COc1cc(-c2cccc(C(C)C)c2Oc2nnc(S(=O)(=O)N3CCC(N(C)C)CC3)[nH]2)ccn1` [Example 243, 1-((5-(2-isopropyl-6-(2-methoxypyridin-4-yl)phenoxy)-4H-1,2,4-triazol-3-yl)sulfonyl)-N,N-dimethylpiperidin-4-amine]: the IC50 is ≤ 5 µM. For `O=S(=O)(c1nnc(Nc2c3c(cc4c2CCC4)CCC3)[nH]1)N1CCC2(CCN(C3CC3)C2)CC1` [Example 244, 5-((2-cyclopropyl-2,8-diazaspiro[4.5]decan-8-yl)sulfonyl)-N-(1,2,3,5,6,7-hexahydro-s-indacen-4-yl)-4H-1,2,4-triazol-3-amine] the value was ≤ 5 µM; for `COc1cc(-c2cc(F)cc(C(C)C)c2Oc2nnc(S(=O)(=O)N3CCC(N(C)C)CC3)[nH]2)ccn1` [Example 253, 1-((5-(4-fluoro-2-isopropyl-6-(2-methoxypyridin-4-yl)phenoxy)-4H-1,2,4-triazol-3-yl)sulfonyl)-N,N-dimethylpiperidin-4-amine], ≤ 5 µM.

In the case of `O=S(=O)(c1nnc(Nc2c3c(cc4c2CCC4)CCC3)[nH]1)N1CCC2(CCCN2CCF)CC1` [Example 255, 5-((1-(2-fluoroethyl)-1,8-diazaspiro[4.5]decan-8-yl)sulfonyl)-N-(1,2,3,5,6,7-hexahydro-s-indacen-4-yl)-4H-1,2,4-triazol-3-amine], the IC50 was ≤ 1 µM.

Regarding `CCN1CCCC12CCN(S(=O)(=O)c1nnc(Nc3c4c(cc5c3CCC5)CCC4)[nH]1)CC2` [Example 256, 5-((1-ethyl-1,8-diazaspiro[4.5]decan-8-yl)sulfonyl)-N-(1,2,3,5,6,7-hexahydro-s-indacen-4-yl)-4H-1,2,4-triazol-3-amine], the IC50 was ≤ 0.5 µM. Regarding `CN(C)S(=O)(=O)c1nnc(Nc2c3c(cc4c2CCC4)CCC3)[nH]1` [Example 262, 5-((1,2,3,5,6,7-hexahydro-s-indacen-4-yl)amino)-N,N-dimethyl-4H-1,2,4-triazole-3-sulfonamide], the IC50 was ≤ 5 µM. On to `O=S(=O)(c1nnc(Nc2c3c(cc4c2CCC4)CCC3)[nH]1)N1CC2(CCN(CC(F)(F)F)C2)C1` [Example 263, N-(1,2,3,5,6,7-hexahydro-s-indacen-4-yl)-5-((6-(2,2,2-trifluoroethyl)-2,6-diazaspiro[3.4]octan-2-yl)sulfonyl)-4H-1,2,4-triazol-3-amine], for which the 50% inhibitory concentration (IC50) is ≤ 5 µM. For `O=S(=O)(c1nnc(Nc2c3c(cc4c2CCC4)CCC3)[nH]1)N1CC2(CCNC2)C1` [Example 265, 5-((2,6-diazaspiro[3.4]octan-2-yl)sulfonyl)-N-(1,2,3,5,6,7-hexahydro-s-indacen-4-yl)-4H-1,2,4-triazol-3-amine] the value was ≤ 5 µM; for `O=S(=O)(c1nnc(Nc2c3c(cc4c2CCC4)CCC3)[nH]1)N1CCC2(CCNC2)CC1` [Example 266, 5-((2,8-diazaspiro[4.5]decan-8-yl)sulfonyl)-N-(1,2,3,5,6,7-hexahydro-s-indacen-4-yl)-4H-1,2,4-triazol-3-amine], ≤ 5 µM. Regarding `O=S(=O)(c1nnc(Nc2c3c(cc4c2CCC4)CCC3)[nH]1)N1CCC2(CCCN2CC(F)(F)F)CC1` [Example 267, N-(1,2,3,5,6,7-hexahydro-s-indacen-4-yl)-5-((1-(2,2,2-trifluoroethyl)-1,8-diazaspiro[4.5]decan-8-yl)sulfonyl)-4H-1,2,4-triazol-3-amine], the concentration for half-maximal inhibition (IC50) is ≤ 10 µM.
